The values that follow come from a melting point compilation (Tetko et al.; mined from patent text by program, amines drawn as free bases though some values may be those of a salt).

In turn, `O=C(Nc1ccc2oc3c(c2c1)CCCC3)C12CC3CC(CC(C3)C1)C2` yielded a melting point of 247 to 248 °C.
With `COc1ccccc1-c1cn(C)cc(-c2cccc(C(F)(F)F)c2)c1=O` the figure was 193 to 196 °C; with `O=c1oc2ccccc2c2ccc(O)c(O)c12`, 185 to 187 °C.
The value for `COc1cccn2c(=O)c3c(nc12)C(=Cc1ccccc1Cl)CC3` was 247 to 248 °C.
In turn, `CCOC(=O)NC(=NCCC(c1ccccc1)c1ccc(F)cc1)NCCCc1c[nH]cn1` (stereo not drawn) displayed a melting point of 131 °C.
With `CC(C)(C)OC(=O)N1CC(CC(=O)CC(=O)OCc2ccc([N+](=O)[O-])cc2)C2NC(=O)C21` (stereo not drawn) the figure was 107 to 110 °C.
Take `COC(=O)NN(C(=O)Cl)c1cccc2c1OCC2`: the melting point was in the range of 110 to 112 °C.
With `O=C(O)CCCCCNC(=O)c1cccc2c(=O)c3ccccc3[nH]c12` the figure was 218 °C; with `COc1cc(-c2nc3ccccc3n2Cc2cccc(Cl)c2)cc(OC)c1OC`, 83 °C; with `NCCOc1ccncc1`, 108 to 112 °C.
The value for `CNC(=O)n1nc(Oc2ncc(C(F)(F)F)cc2Cl)c(C)c1C` was 117 to 118 °C; that for `CC(=NNC(=O)c1ccc(C(F)(F)F)cc1)c1ccncc1` was 198 °C; that for `COc1ccc(-c2ccc3c(c2)C=C(C(=O)Nc2ccc(CN(C)C4CCC(=O)CC4)cc2)CCS3)cc1` was 133 to 139 °C.
With `Nc1ccc2c(Cl)cc(Cl)nc2n1`, the melting point was 213 to 216 °C.
The value for `CC(C)C(c1cnccc1C(F)(F)F)N(C)C(=O)Cc1ccccc1` (stereo not drawn) was 71.2 °C; that for `Oc1c2c(nn1-c1cc(C(F)(F)F)ccn1)CCc1ccccc1-2` was 161 to 162 °C.
The value for `CC(=O)CS(=O)(=O)NC1(c2ccc(OCc3ccc4ccccc4n3)cc2)CCCCCC1` was 174 to 176 °C; that for `COc1ccc(-c2nc(Sc3ccccn3)[nH]c2-c2ccc(OC)cc2)cc1` was 94 °C.
The value for `ClCc1conc1-c1ccc(-c2ccccc2)cc1` was 102 to 103 °C.
Molecule `CNS(=O)(=O)c1cn(C)c2cc(F)ccc2c1=O` had a melting point of 255 to 257 °C.
With `CCOCc1cc2cc(Cl)ccc2oc1=Nc1ccc(Br)cc1` the figure was 119 to 121 °C; with `CCN=C(c1ccc(OC)c(OC)c1)N1CCCc2cc(C3=NNC(=O)SC3C)ccc21` (stereo not drawn), 208 °C.
With `CSc1ncnn1C[C@]1(c2ccc(F)cc2F)O[C@@H]1c1ccccc1F` (relative stereo) the figure was 65 to 68 °C; with `CN1CCCN(c2ccc3nc4c(n3n2)CCCC4)CC1`, 106 to 107 °C; with `CC[C@@H]1CN(c2c(F)c(N)c3c(=O)c(C(=O)O)cn(C4CC4)c3c2F)C[C@H]1NC(=O)OC` (relative stereo), 231 to 232 °C.
In turn, `Nc1cc(Cl)c(NCCO)cc1[N+](=O)[O-]` returned a melting point of 130 to 131 °C.
The value for `CC(C(=O)N(C)C)n1nc(-c2ccccc2)c(Br)c1Br` (stereo not drawn) was 132 to 134 °C; that for `COc1cccc(CCCNC(=O)C2CC2)c1` was 65 to 67 °C; that for `CC1(C)OC(c2ccc(S(N)(=O)=O)c(Cl)c2)=C(c2ccccc2)C1=O` was 193 to 194 °C.
With `COC(=O)c1ccc(CCCO)c(C23CC4CC(CC(C4)C2)C3)c1` the figure was 77 °C.
With `Cn1cc(CN2C(=O)C3(COc4cc5c(cc43)OCO5)c3ccccc32)ccc1=O` (stereo not drawn) the figure was 115 to 118 °C; with `O=C1CC[C@@H]([N+](=O)[O-])[C@H](c2ccc(Cl)cc2)N1` (relative stereo), 148 to 150 °C; with `CCC(O)(c1ccc(O)cc1)c1cccc(Cl)c1` (stereo not drawn), 132 to 134 °C.
In turn, `CCCCCCC(=O)c1ccc2cc(OC)ccc2c1` gave a melting point of 69 to 72 °C.
The value for `CCCCCCCN(Cc1ccc(C(C)(C)C)cc1)C(Nc1ccc(F)cc1F)=C1C(=O)COC1=O` was 89 to 92 °C.
The value for `CNC(=O)c1ccccc1Nc1nc(Nc2cc3c(cc2OC)N(C)C(=O)OCC3)ncc1Br` was 227 to 228 °C.
For the molecule `COc1ccc(-c2ccc3c(c2)CCCC3=O)c2c1OCCO2`, the melting point is 156 to 158 °C.
For the molecule `Cc1nc(-c2ccc(Cl)cc2)oc1COC(C)(C)C(N)=O`, the melting point is 177 to 178 °C.
Turning to `Nn1cccc1C(=O)c1ccccc1Cl`, the melting point is 76 to 78 °C.
The molecule `Cc1ccnc2c1C(=O)CC(c1ccc(F)cc1F)C2` (stereo not drawn) had a melting point of 106 to 107 °C.
`c1ccc(-c2cnc(NC3CCC(CCN4CCN(c5ccccc5)CC4)CC3)nc2)cc1` (stereo not drawn): the melting point was determined as 170 °C.
The value for `Cc1cc(C(=O)OC(C)(C)C)cc(C(=O)OC(C)(C)C)c1` was 86.5 to 87.5 °C; that for `CCC(c1ccccc1)(c1ccccc1)c1ccnc(C(N)=O)c1` was 144 to 147 °C.
As to `Cc1cn(Cc2ccc(F)cc2)c(C)c1C(=O)CC(=O)C(=O)O`, the melting point was 184 to 185 °C.
With `COC(=O)c1nc(C)n2c1CN=C(c1ccccc1Cl)c1cc(Cl)ccc1-2` the figure was 225 to 227 °C.
For the molecule `Cc1ccc(C(=O)Nc2ccc(-n3ccnc3)c(C(F)(F)F)c2)cc1Nc1nccc(-c2cccnc2)n1`, the melting point is 226 to 229 °C.
Take `COCC1(O)CCN(c2c(F)cc([N+](=O)[O-])cc2F)CC1`: the melting point is 84 to 86 °C.
The value for `COc1cc2c(cc1Nc1ncc(Cl)c(Nc3ccccc3S(=O)(=O)N(C)C)n1)CCN(CC(=O)N(C)C)CC2` was 218 to 225 °C.
Regarding `COC(=O)CCC(C)C(=O)O` (stereo not drawn), the melting point is 97 to 99 °C.
With `Cc1ncnn1-c1ccc(C#N)c(F)c1` the figure was 89 to 90 °C; with `Cn1c(C(F)(F)F)cc(=O)n(-c2ccc3snc(C(=O)NS(C)(=O)=O)c3c2)c1=O`, 241 to 243 °C; with `O=C(NCc1nccs1)c1cc(N2CCN(Cc3ccc(F)cc3)C2=O)n[nH]1`, 272 to 274 °C.
The molecule `Cc1ccccc1C(=O)Nc1ccc(C(=O)N2CCCC(O)(CO)c3ccccc32)cc1` (stereo not drawn) returned a melting point of 136 to 140 °C.
The value for `Cc1c(NC(=O)c2ccccc2[N+](=O)[O-])cccc1C(F)(F)F` was 188 to 189 °C.
Molecule `COC(=O)c1ccc2sc(Cl)nc2c1C` gave a melting point of 112 °C.
Turning to `CC(=O)N1CCS(=O)c2cccc(Cl)c2C1` (stereo not drawn), the melting point lay in the range of 119 to 121 °C.
The value for `N#Cc1cnc2c(sc3ccc([N+](=O)[O-])cc32)c1Nc1cccc(Br)c1` was over 300 °C; that for `NC(=O)c1sc2nc(N3CCC(NCC(O)c4cccc(F)c4)CC3)cc(C(F)(F)F)c2c1N` (stereo not drawn) was 215 °C; that for `COC(=O)C(O)C(O)C(O)C(O)C(=O)OC` (stereo not drawn) was 90.2 to 90.7 °C.
`CCOC(=O)CC[C@H](NC(=O)c1ccc([N+](=O)[O-])cc1Cl)C(=O)OCC` came in with a melting point of 95 to 96 °C.
On to `Cc1ccc(-c2ccc(C(CCC(=O)O)=NO)cc2)cc1`, for which the melting point lay within 176 to 178 °C.
Molecule `COc1ccc2cc(-c3ccccc3)cc(CCNC(C)=O)c2c1` had a melting point of 135 °C.
The molecule `CCCCCCCC(=O)Nc1ccc([N+](=O)[O-])cc1` gave a melting point of 80.9 to 81.6 °C.
`COc1ccc(S(=O)(=O)C(CC=C(C)C)(Cc2cccnc2)C(=O)NO)cc1` (stereo not drawn) came in with a melting point of 89 to 92 °C.
In turn, `CCOP(=O)(Cc1ccc(NC(=O)/C=C/c2cnn(C)c2-c2ccc(F)cc2)cc1)OCC` had a melting point of 208 to 209 °C.
The value for `CC1(c2ccc(O)c(O)c2)C(=O)Nc2ccccc2C1=O` (stereo not drawn) was 259 to 261 °C; that for `O=C(CNC1=Nc2ccc(Cl)cc2C(c2ccccc2Cl)=NC1)CN1C(=O)c2ccccc2C1=O` was 180 to 190 °C; that for `CCOC(=O)C1CC1c1cc(=O)c2cc(-c3ccccc3)ccc2o1` (stereo not drawn) was 134 to 141 °C.
Molecule `CC(=O)NC[C@H]1CN(c2ccc(-n3ccnn3)c(F)c2)C(=O)O1` returned a melting point of 193 to 194 °C.
The value for `NS(=O)(=O)c1nnc(NC(=O)CNC(=O)OCc2ccccc2)s1` was 199 to 201 °C; that for `CCCc1c(OCc2c(C)ccn3c(=O)c(CC(=O)O)cnc23)ccc(C(C)=O)c1O` was 191 to 193 °C.
For the molecule `COc1ccc2oc(-c3ccc(O)cc3C)cc2c1`, the melting point lay in the range of 149 to 154 °C.
The value for `c1cnc2[nH]cc(CN3CCc4ccc(-c5ccsc5)cc4C3)c2c1` was 228 to 230 °C; that for `CCc1c(C)[nH]c(=O)n(-c2cc(C(=O)OC(C)C)c(Cl)cc2F)c1=O` was 176 to 178 °C.
Molecule `CC(C)COC(=O)CC1CC(c2ccc(C#N)cc2)=NO1` (single isomer, unassigned; (-)) gave a melting point of 98 to 100 °C.
With `CCOC(=O)c1ccc(N2CCC(NCC(O)COc3cccc4[nH]c(=O)[nH]c34)CC2)nc1` (stereo not drawn) the figure was 191 to 193 °C; with `CC(C)C(C(=O)O)c1ccc(OC(F)(F)C(F)F)cc1` (stereo not drawn), 92 to 97 °C.
With `COc1ccc(S(=O)(=O)N2CCc3cccc(-c4ccc(C#N)cc4)c32)cc1` the figure was 157 to 159 °C; with `Cc1[nH]c2ccc(CCN3CCCCC3)cc2c1C(=O)OCc1ccccc1`, 159 to 161 °C.
On to `NS(=O)(=O)Oc1ccc2c(C3CCCCC3)csc2c1`, for which the melting point is 128 °C.
In turn, `COC(=O)CCNC(=O)c1cc(NC(=O)c2ccc(C(=N)NC(=O)OC(C)(C)C)cc2)ccc1O` yielded a melting point of 177 to 179 °C.
The value for `CS(=O)(=O)c1nc(O)nn1-c1ccccc1` was 173 to 175 °C; that for `O=C1Nc2cccc(Br)c2C12COc1cc3c(cc12)OCCO3` (stereo not drawn) was over 250 °C; that for `CC(C)[C@H](NC(=O)OC(C)(C)C)[C@H]1CCn2c(c(C3=C(c4cn(-c5ccccc5)c5ccccc45)C(=O)OC3=O)c3ccccc32)C1` was 148 to 150 °C.
The value for `Cc1ccnc(C(O)c2sc(NC(=N)N)nc2C)c1` (stereo not drawn) was 150 to 152 °C; that for `O=C(NNS(=O)(=O)c1ccccc1)c1cnc2ccccc2c1` was 249 to 250 °C; that for `CCCCCN(C(=O)c1cnc(N2CC(C)(C)NC2=O)nc1N)c1cccc(C(F)(F)F)c1` was 167 to 168 °C.
The value for `CCn1cc(C(=O)O)c(=O)c2cc(F)c(N3CCNCC3)c(C)c21` was 153 to 156 °C.

The melting point is the temperature of the solid-liquid transition.
